Assay in all cases: inhibition of tumour cell growth, NCI panel, 48 h
The subject of experiment [1] is M19-MEL melanoma.
In experiment [2] the test system is DMS 273 small cell lung.
Experiment [3] concerns DMS 114 small cell lung.
Experiment [4] concerns DLD-1 colon.
The test system of experiment [5] is MDA-N.
The test system of experiment [6] is SNB-78 CNS.
The test system of experiment [7] is XF 498 CNS.
The test system of experiment [8] is RXF-631 renal.
For experiment [9], the system named is HOP-18 NSCLC.

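These data come from cells grown in 96-well plates and exposed to compound for 48 hours at five concentrations. GI50 is the concentration that inhibits growth by half. TGI denotes the concentration required for complete inhibition of growth.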 Bounds are passed on as bounds.

Consider `[Cl-].[O-]/N=C(\c1ccccc1)c1ccccn1.[O-]/N=C(\c1ccccc1)c1ccccn1.[O-]/N=C(\c1ccccc1)c1ccccn1.[Sm+3]`, for which the GI50 was 21.2 µM in [1], 28.7 µM in [2], 23 µM in experiment [3] and 33 µM in [4]. Besides, the TGI in experiment [1] was 45.7 µM; in experiment [2], 95.1 µM; in experiment [3], 72 µM; in experiment [4], above 100 µM.
For the molecule `CC(=O)O[C@H]1CC[C@@]2(C)C(=CC[C@H]3[C@@H]4CC[C@H](c5cc(C(F)(F)F)n(C(C)=O)n5)[C@@]4(C)CC[C@@H]32)C1`, the TGI in experiment [5] stood at 23.6 µM.
For the molecule `CCOC(=O)C1N(S(=O)(=O)c2ccc(C)cc2)CCC12c1ccccc1N(C(C)=O)C2c1ccc(OC)c(OC)c1` (centres undefined), the TGI in experiment [6], in [1], in experiment [2], in experiment [3], in experiment [7] and in [4] was above 100 µM throughout.
`O=C(CC(c1ccccc1)c1c(O)c2ccccc2oc1=O)c1ccccc1` (centres undefined) displayed a TGI in experiment [5] above 100 µM.
Take `COc1ccc(-c2cc(=O)c3ccc(C)nc3[nH]2)cc1`: in experiment [5], the GI50 is 55.2 µM and the TGI is above 100 µM.
Take `[Cl][Hg][Cl]`: in experiment [5], the GI50 is 15.5 µM and the TGI was found to be 28.9 µM.
As to `Cc1ccc(SC(CCC(Sc2ccc(C)cc2)Sc2ccc(C)cc2)Sc2ccc(C)cc2)cc1`, the TGI in experiment [6], in experiment [8], in experiment [1], in [2], in experiment [3] and in experiment [7] was above 100 µM in each case. For the same molecule, the TGI in [4] was above 100 µM.
Regarding `O=C1c2ccccc2C(Br)(Br)c2ccccc21`, the TGI in experiment [6] was above 100 µM; in experiment [1], above 31.6 µM; in experiment [2], above 31.6 µM; in experiment [3] it was above 31.6 µM; in experiment [7], 97.8 µM; in [4] it was above 31.6 µM. This molecule displayed a TGI in experiment [9] above 31.6 µM.
On to `COC(=O)N(C(=O)OC)C(C(=O)O)C(C)C` (centres undefined), for which the TGI in [6], in [1], in experiment [2], in experiment [3], in [4] and in experiment [9] was above 100 µM throughout.
For `C=C(C)C(=O)O[C@H]1C[C@@]23O[C@@H]2CCC(=C[C@H]2OC(=O)C(=C)[C@H]12)COC3O` (some centres undefined), in [5], the TGI was above 100 µM.
`CC(=O)[CH-]C(C)=O.CC(=O)[CH-]C(C)=O.[CH2-]CCC.[CH2-]CCC.[Sn+4]`: the GI50 was 1.19 µM in experiment [2], 0.262 µM in experiment [7], 0.475 µM in experiment [4] and 0.569 µM in experiment [9]. Moreover, the TGI in experiment [2] stood at 2.53 µM; in experiment [3], 0.301 µM; in experiment [7], 1.07 µM; in experiment [4], 1.58 µM; in experiment [9] it was 1.88 µM.
On to `COc1ccc2c(CN3CCCCC3CO)cc3cc(OC)c(OC)cc3c2c1` (centres undefined), for which the TGI in experiment [6] is 23.1 µM; in [1], 11.4 µM; in experiment [2] it was 11.7 µM; in experiment [3], 15.8 µM; in [7] it was 18.9 µM; in experiment [4] it was above 100 µM. In experiment [9], the TGI was found to be 38 µM.
`CCCCCC[N+](C)(C)Cc1ccc(C[N+](C)(C)CCCCCC)cc1`: the TGI in [6] came to 5.15 µM; in experiment [2], 3.73 µM; in experiment [4], 26.5 µM; in [9] it was 21.8 µM.
With `CN(C)CC(C)(C)/C(=N\Nc1ccccc1)c1ccccc1`, the TGI in experiment [6], in [1], in experiment [2], in experiment [3], in experiment [4] and in [9] was above 100 µM in each case.
For the molecule `CCCCCC(=O)C(C)C1=Nc2nnc(CCCCCCCc3nnc4n3C(=O)C(C(C)C(=O)CCCCC)=N4)n2C1=O` (centres undefined), the TGI in experiment [8], in experiment [1], in experiment [3], in [7], in [4] and in experiment [9] was above 100 µM in each case.
On to `O=c1nc(/C=C/c2ccccc2Cl)cc2n1CCN2CCO`, for which the TGI in experiment [1], in experiment [3] and in [4] was above 100 µM in each case.
`COc1ccc(S(=O)(=O)Nc2ccccc2C(=O)O)cc1`: the TGI in [8], in experiment [1], in experiment [2], in [7], in experiment [4] and in [9] was above 100 µM in each case.
For the molecule `COc1ccc(Nc2nc3ccc(C(F)(F)F)cc3nc2-c2ccccc2)cc1OC`, the TGI in experiment [8] is above 100 µM; in experiment [2] it was above 100 µM; in [3] it was above 100 µM; in experiment [7] it was 85 µM; in experiment [4], above 100 µM.
`C[N-]c1nnnn1C.[Au+].c1ccc([PH+](c2ccccc2)c2ccccc2)cc1`: the GI50 in experiment [6] was 5.28 µM; in [1], 2.9 µM; in [3], 2.57 µM; in [4] it was 2.05 µM; in [9], 2.35 µM. Also, the TGI in experiment [6] was above 69.1 µM; in [1], 14.9 µM; in experiment [3], above 100 µM; in experiment [4], 5.02 µM; in experiment [9], 5.96 µM.
Consider `CC(C)CCC(=O)c1ccoc1`, for which the TGI in experiment [5] is above 100 µM.
The same measure, in the same setting: next, `FC(F)(F)c1nc2nc(Cl)c(Cl)nc2n1CCCN1CCOCC1`: above 100 µM; `CC(C)=CCc1c(OC(=O)c2c(C)cc(O)cc2O)cc(CO)c(CO)c1O`: 34.8 µM.
For the molecule `COCCCNC(=O)C1C(=O)N(CCCOC)C(=O)/C1=N\N` (centres undefined), the TGI in [6], in [8], in experiment [1], in experiment [2], in [3] and in experiment [4] was above 100 µM each time. This molecule also had a TGI in experiment [9] above 100 µM.
Take `C=C1C(=O)O[C@@H]2C[C@@H](C)[C@@H]3C=CC(=O)[C@@]3(C)[C@@H](OC(=O)CC(=O)O[C@H]3[C@@H]4C(=C)C(=O)O[C@@H]4C[C@@H](C)[C@@H]4C=CC(=O)[C@]43C)[C@H]12`: the TGI in experiment [6] stood at 0.101 µM; in [8] it was 0.455 µM; in [1], 0.0376 µM; in experiment [2], 0.122 µM; in [3], 0.108 µM; in experiment [5] it was 10.2 µM. Further, the TGI in experiment [7] was 0.05 µM; in experiment [4], below 0.0215 µM; in experiment [9], 0.365 µM.
With `Cc1cc(=O)oc2cc(OC(=O)N(C)C)c(Cl)cc12`, the TGI in experiment [5] was above 100 µM.
Still for that read-out and setting: next, `Cc1ccc(S(=O)(=O)NC(=O)C2C(=O)CC3(CCCCC3)CC2=O)cc1`: above 100 µM.
As for `Cc1cc2c(ccc3c(C)cc(=O)oc32)o1`, the TGI in experiment [6], in experiment [8], in [1], in experiment [2], in [3] and in experiment [7] was above 100 µM each time. The TGI in [4] and in [9] was above 100 µM throughout.
`CCCC(=O)NC1=C(Cl)C(=O)c2ccccc2C1=O` gave a TGI in experiment [5] of 14.6 µM.
On the same count and under the same terms, to `Oc1[nH]c2ccccc2c1N=Nc1ccccn1` belongs above 100 µM.
`C#Cc1cccc(N2C(=O)CCC2=O)c1`: the TGI in experiment [6] stood at 54.6 µM; in [8] it was 41.1 µM; in experiment [1], 35.3 µM; in experiment [2], 47.4 µM; in [3] it was 21.8 µM; in experiment [5] it was 28.7 µM. The TGI in experiment [7] came to 29 µM; in [4], 50.1 µM; in experiment [9], 34.3 µM.
Take `Nc1ccccc1C(=O)CC1OC(=O)c2ccccc21` (centres undefined): the TGI in experiment [5] was above 100 µM.
Regarding `CCC[CH2][Sn]1([CH2]CCC)[O]CC(Cc2ccccc2)[O]1` (centres undefined), the GI50 is 2.61 µM in experiment [6]; 1.57 µM in experiment [8]; 2.83 µM in [1]; 2.81 µM in experiment [2]; 1.72 µM in experiment [3]; 1.74 µM in experiment [7]. Besides, the TGI is 7.46 µM in experiment [6]; 2.94 µM in experiment [8]; 15.6 µM in experiment [1]; 11 µM in experiment [2]; 3.59 µM in [3]; 3.23 µM in [7].
As to `CN(C)CC(C)(C)C(=O)/C=C/c1ccc(/C=C/C(=O)C(C)(C)CN(C)C)cc1`, the TGI in experiment [8] is 4.14 µM; in experiment [1] it was 3.14 µM; in [2], 2.38 µM; in experiment [3], 2.76 µM; in experiment [7] it was 2.55 µM; in [4], 1.01 µM.
With `COc1ccc(OC)c2c1CC(C(=O)O)(C(=O)O)CC2=O`, the TGI in experiment [6] and in experiment [3] was above 100 µM throughout.
As to `Cc1[nH]c2ccccc2c1C(=O)CC1(O)C(=O)Nc2ccccc21` (centres undefined), the TGI in experiment [6], in [8], in [1], in experiment [2] and in [4] was above 100 µM in each case.
`O=C(CP(=O)(O)O)NC(CC(=O)OCc1ccccc1)C(=O)OCc1ccccc1` (centres undefined): in experiment [5], the TGI was above 100 µM.
Still for that read-out and setting: next, `CC(=O)OCC1OC(n2c(-c3ccc(Cl)cc3)ccc(C#N)c2=S)C(OC(C)=O)C(OC(C)=O)C1OC(C)=O` (centres undefined): above 100 µM.
In the case of `c1cc(N(CCn2cccn2)CCn2cccn2)cc(N(CCn2cccn2)CCn2cccn2)c1`, the TGI in experiment [6], in experiment [8], in experiment [1], in experiment [2], in experiment [3] and in [7] was above 100 µM throughout. Besides, the TGI in experiment [4] was above 100 µM.
For `C=C(COC(C)=O)CC(OC(C)=O)c1ccccc1` (centres undefined), the TGI in experiment [6], in experiment [1], in [2], in experiment [3], in [7] and in experiment [4] was above 100 µM each time.
Turning to `Cc1ccc(NC(=O)C2C(=O)N(c3ccc(C)cc3)C(=O)/C2=N\NC(N)=S)cc1` (centres undefined), the TGI in [6], in [1], in experiment [2], in experiment [3], in experiment [7] and in experiment [9] was above 100 µM throughout.

Values taken from PubChem BioAssay (NCI).
